{
  "source": "ChEMBL document CHEMBL1201862",
  "about": "“PubChem BioAssay data set” (2004)",
  "key": {"Interleukin-8 [1]": {"molecular_target": "T1, Interleukin-8 (Homo sapiens, UniProt P10145)", "T1 sequence (P10145 whole entry)": "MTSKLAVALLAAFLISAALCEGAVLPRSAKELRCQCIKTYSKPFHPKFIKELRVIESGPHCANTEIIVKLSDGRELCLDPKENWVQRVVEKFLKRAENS", "test": "Dose Response confirmation of uHTS small molecule hits for cystic fibrosis induced NFkb Inhibitors in a TNFa-induced IL8 counterscreen.", "format": "functional", "details": "read-out: IC50_Mean"}, "Interleukin-8 [2]": {"molecular_target": "T1, Interleukin-8", "test": "Dose Response confirmation of uHTS small molecule hits for cystic fibrosis induced NFkb Inhibitors in a PAF-induced IL8 counterscreen.", "format": "functional", "details": "read-out: IC50_Mean"}, "[3]": {"molecular_target": "T2, Heat shock factor protein 1 (Mus musculus, UniProt P38532)", "T2 sequence (P38532 whole entry)": "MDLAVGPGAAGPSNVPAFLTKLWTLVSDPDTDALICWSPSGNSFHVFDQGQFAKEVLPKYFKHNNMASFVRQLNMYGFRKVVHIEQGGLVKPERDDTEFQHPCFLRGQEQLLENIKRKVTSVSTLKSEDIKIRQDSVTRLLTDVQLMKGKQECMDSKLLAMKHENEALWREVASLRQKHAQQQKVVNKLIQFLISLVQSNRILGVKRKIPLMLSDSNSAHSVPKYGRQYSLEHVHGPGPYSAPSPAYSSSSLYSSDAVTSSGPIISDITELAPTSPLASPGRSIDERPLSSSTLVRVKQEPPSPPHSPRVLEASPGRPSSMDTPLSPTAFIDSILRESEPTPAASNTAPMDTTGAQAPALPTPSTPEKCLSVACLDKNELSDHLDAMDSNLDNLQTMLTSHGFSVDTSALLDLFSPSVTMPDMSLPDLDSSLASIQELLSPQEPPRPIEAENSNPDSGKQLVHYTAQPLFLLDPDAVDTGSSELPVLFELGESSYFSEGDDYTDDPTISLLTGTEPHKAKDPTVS", "test": "inhibition of MG132-induced HSE-luciferase signal, confirmation, cell-based, NIH3T3, luminescence, dose retest (AID 2382);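 also: NIH3T3 fibroblasts with HSF1-driven luciferase reporter stressed by proteasome inhibitor MG132; luminescence from HSF1-driven luciferase expression after 8 hours of MG132 stress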", "format": "functional"}, "Galanin receptor type 3": {"molecular_target": "Galanin receptor type 3 (Homo sapiens, UniProt O60755)", "sequence (O60755 whole entry)": "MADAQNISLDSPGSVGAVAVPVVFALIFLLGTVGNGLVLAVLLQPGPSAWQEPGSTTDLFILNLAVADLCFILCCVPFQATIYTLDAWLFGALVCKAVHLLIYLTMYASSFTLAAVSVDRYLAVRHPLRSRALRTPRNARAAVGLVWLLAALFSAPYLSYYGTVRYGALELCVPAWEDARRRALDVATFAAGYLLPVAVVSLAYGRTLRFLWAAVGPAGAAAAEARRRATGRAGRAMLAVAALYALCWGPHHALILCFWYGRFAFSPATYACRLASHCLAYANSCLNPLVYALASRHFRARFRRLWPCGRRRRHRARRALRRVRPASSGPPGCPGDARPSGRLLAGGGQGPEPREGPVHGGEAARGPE", "test": "Fluorescence-based cell-based primary high throughput dose response assay to identify antagonists of the Galanin Receptor 3 (GalR3).", "format": "functional"}, "[4]": {"test": "non-specific cell cytotoxicity, dose response, cytotoxicity control for PAX8 inhibitor project, plate reader, dry powder samples (AID 743021)", "format": "functional, cell-based"}, "Paired box protein Pax-8": {"molecular_target": "Paired box protein Pax-8 (Homo sapiens, UniProt Q06710)", "sequence (Q06710 whole entry)": "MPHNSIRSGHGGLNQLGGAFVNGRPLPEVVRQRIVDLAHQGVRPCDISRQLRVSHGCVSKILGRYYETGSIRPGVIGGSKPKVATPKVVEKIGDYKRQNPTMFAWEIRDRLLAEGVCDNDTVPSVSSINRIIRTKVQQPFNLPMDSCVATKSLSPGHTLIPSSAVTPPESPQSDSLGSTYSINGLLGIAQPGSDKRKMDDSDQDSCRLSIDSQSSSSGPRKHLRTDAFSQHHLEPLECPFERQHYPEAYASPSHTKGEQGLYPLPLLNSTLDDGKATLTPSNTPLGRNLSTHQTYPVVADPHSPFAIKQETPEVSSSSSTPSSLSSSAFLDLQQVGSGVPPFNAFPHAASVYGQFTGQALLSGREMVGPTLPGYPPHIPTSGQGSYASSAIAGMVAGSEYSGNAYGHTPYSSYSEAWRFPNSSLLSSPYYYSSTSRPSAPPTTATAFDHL", "test": "inhibitors of PAX8-driven TPO luciferase reporter, dose response, RMG-I cells, cherry-pick (AID 687027);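 also: luciferase reporter driven by Pax8 target thyroperoxidase promoter measured by SteadyGlo luminescence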", "format": "functional, cell-based"}, "[5]": {"molecular_target": "5-hydroxytryptamine receptor 2A (Mus musculus, UniProt P35363)", "sequence (P35363 whole entry)": "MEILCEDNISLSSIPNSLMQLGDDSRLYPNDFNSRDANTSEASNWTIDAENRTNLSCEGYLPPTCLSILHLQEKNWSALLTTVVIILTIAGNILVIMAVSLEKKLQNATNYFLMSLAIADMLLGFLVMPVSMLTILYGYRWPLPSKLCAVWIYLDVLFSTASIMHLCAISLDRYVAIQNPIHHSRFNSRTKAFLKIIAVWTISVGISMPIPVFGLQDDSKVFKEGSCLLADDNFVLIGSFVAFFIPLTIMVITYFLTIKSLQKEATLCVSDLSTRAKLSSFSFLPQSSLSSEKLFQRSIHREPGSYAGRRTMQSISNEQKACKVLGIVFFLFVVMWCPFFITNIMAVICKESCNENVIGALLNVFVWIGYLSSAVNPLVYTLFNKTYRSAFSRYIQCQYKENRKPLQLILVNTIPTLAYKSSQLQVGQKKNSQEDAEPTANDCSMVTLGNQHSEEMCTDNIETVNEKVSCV", "format": "functional, cell-based"}, "Mu-type opioid receptor": {"molecular_target": "Mu-type opioid receptor (Homo sapiens, UniProt P35372)", "sequence (P35372 whole entry)": "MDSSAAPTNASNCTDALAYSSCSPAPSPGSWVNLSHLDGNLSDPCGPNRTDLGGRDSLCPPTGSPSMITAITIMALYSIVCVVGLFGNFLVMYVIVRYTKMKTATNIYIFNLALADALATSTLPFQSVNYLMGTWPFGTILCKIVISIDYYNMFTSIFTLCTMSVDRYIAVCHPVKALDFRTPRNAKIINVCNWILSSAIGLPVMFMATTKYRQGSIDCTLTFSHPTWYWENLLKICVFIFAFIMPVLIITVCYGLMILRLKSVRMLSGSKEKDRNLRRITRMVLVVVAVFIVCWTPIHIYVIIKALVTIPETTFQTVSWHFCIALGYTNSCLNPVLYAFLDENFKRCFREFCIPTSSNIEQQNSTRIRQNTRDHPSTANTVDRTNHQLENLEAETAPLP", "format": "functional, cell-based"}, "Vero": {"system": "Vero", "test": "Vero cell toxicity, dose response, cytotoxicity control, plate reader, cherry-pick samples (AID 687020)", "format": "functional, cell-based", "details": "Chlorocebus sabaeus"}, "[6]": {"molecular_target": "T3, Beta-2 adrenergic receptor (Homo sapiens, UniProt P07550)", "T3 sequence (P07550 whole entry)": "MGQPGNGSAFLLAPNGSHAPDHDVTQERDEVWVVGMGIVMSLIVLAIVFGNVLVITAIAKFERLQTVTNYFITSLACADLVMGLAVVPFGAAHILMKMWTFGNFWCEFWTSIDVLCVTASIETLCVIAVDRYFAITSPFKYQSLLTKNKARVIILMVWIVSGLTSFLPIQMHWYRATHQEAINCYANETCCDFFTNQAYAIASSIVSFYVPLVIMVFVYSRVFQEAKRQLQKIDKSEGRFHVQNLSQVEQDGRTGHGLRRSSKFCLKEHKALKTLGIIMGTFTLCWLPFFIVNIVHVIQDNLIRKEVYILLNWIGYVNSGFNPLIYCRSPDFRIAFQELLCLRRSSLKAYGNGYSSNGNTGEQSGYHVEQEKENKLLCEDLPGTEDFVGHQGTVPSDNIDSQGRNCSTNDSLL", "test": "beta2AR agonists driving receptor internalization, dose response, cell-based, FAP fluorogen, flow cytometry, cherry pick 1 (AID 588763)", "format": "functional"}, "[7]": {"molecular_target": "T3, Beta-2 adrenergic receptor", "test": "Dose response for HTS for Beta-2AR agonists via FAP method from Powderset1.", "format": "functional"}, "[8]": {"molecular_target": "T4, Apoptotic protease-activating factor 1 (Homo sapiens, UniProt O14727)", "T4 sequence (O14727 whole entry)": "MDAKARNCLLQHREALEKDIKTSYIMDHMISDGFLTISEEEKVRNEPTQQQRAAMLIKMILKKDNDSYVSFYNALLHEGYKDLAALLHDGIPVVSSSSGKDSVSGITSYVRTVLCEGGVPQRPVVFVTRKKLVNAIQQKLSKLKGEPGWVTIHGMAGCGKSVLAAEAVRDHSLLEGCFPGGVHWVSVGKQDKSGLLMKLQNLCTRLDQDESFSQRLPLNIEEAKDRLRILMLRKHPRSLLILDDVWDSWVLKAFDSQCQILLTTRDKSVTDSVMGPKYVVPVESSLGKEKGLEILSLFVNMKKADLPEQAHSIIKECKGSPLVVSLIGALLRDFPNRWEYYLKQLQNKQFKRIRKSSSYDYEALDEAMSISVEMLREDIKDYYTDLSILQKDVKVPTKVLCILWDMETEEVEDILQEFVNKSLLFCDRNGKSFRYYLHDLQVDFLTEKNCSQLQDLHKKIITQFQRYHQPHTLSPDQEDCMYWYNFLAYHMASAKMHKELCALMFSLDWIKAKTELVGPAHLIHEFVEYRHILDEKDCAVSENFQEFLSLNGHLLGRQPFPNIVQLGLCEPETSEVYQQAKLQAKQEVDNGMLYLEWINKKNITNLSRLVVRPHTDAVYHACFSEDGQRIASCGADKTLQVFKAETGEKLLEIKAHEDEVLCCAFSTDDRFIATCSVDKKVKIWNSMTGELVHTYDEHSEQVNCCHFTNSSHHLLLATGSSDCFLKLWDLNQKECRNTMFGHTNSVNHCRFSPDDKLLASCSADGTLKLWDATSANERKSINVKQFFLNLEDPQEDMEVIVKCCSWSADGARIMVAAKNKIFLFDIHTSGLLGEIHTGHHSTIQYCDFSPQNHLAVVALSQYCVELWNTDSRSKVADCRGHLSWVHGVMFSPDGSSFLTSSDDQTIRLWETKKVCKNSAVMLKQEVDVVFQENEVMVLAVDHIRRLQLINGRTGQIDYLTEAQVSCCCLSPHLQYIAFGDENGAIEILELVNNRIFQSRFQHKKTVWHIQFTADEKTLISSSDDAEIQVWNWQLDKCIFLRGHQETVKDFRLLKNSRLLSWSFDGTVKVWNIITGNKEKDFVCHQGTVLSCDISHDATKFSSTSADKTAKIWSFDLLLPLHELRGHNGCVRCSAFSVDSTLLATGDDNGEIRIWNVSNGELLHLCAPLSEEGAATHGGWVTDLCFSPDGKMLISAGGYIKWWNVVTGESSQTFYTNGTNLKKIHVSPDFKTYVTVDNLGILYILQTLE", "test": "SAR analysis of small molecule Activators of Apaf-1 in a Fluorescent assay.", "format": "functional", "details": "read-out: EC50_Mean"}, "[9]": {"molecular_target": "Nuclear receptor subfamily 5 group A member 2 (Homo sapiens, UniProt O00482)", "sequence (O00482 whole entry)": "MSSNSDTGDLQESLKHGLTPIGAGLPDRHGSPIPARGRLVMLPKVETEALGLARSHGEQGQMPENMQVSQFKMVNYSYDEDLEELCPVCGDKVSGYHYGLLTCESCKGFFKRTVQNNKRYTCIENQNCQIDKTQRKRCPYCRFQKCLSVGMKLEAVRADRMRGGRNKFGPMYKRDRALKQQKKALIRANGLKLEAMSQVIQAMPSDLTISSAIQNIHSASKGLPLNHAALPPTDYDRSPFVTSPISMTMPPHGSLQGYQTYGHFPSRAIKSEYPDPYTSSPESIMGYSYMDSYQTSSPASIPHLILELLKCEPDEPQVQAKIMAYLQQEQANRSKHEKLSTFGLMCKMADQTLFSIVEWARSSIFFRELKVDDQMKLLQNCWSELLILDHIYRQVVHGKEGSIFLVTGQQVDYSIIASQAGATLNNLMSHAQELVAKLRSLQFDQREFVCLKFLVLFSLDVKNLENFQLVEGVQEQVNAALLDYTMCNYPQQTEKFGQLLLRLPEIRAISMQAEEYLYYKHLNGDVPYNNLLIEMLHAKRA", "format": "functional, cell-based"}, "[10]": {"test": "StAR promoter reporter inhibition counter-screen, dose response, counter-screen for LRH-1 inverse agonist project, cell-based, luminescence, luciferase reporter (AID 651969)", "format": "functional"}, "Steroidogenic factor 1": {"molecular_target": "Steroidogenic factor 1 (Homo sapiens, UniProt Q13285)", "sequence (Q13285 whole entry)": "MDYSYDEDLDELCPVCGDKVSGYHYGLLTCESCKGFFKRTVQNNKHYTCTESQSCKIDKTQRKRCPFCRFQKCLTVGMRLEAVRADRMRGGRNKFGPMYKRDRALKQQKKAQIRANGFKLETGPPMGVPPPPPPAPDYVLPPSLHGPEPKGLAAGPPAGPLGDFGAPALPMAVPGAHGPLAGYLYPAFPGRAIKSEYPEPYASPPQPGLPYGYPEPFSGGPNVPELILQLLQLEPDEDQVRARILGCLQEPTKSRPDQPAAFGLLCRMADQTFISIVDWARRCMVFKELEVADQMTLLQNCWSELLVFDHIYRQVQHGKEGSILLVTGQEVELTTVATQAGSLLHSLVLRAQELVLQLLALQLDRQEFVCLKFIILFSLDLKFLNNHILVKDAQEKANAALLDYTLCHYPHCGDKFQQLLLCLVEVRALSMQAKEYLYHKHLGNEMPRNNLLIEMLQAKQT", "test": "Counterscreen for inverse agonists of the liver receptor homolog-1 (LRH-1; NR5A2): Luminescence-based cell-based high throughput dose response assay to identify inverse agonists of the Steroidogenic Factor 1 Nuclear Receptor (SF1; NR5A1).", "format": "functional"}, "[11]": {"molecular_target": "T5, Polyadenylate-binding protein 1 (Homo sapiens, UniProt P11940)", "T5 sequence (P11940 whole entry)": "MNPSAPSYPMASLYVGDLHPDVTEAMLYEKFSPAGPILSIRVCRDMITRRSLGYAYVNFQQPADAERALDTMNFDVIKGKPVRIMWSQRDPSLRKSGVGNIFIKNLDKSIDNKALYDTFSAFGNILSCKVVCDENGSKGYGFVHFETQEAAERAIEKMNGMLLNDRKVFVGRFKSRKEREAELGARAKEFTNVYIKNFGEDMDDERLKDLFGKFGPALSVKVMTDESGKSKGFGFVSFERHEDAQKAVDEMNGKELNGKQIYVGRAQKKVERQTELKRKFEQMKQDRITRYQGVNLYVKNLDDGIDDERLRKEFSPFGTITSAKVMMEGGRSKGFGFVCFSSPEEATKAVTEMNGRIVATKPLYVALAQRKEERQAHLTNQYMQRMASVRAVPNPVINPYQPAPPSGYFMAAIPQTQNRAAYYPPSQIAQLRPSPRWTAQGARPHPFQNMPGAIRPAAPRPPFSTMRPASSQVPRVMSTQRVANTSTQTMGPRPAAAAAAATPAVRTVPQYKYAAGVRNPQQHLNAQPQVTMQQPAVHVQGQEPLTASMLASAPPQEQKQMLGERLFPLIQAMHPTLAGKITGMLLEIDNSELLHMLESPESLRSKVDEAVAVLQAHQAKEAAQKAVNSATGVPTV", "test": "PABP1 MLLE–PAM2 binding inhibitor potency, dose response, biochemical, fluorescence polarization, FITC-PAM2 peptide (AID 602259)", "format": "functional", "details": "read-out: IC50_Mean"}, "[12]": {"molecular_target": "T5, Polyadenylate-binding protein 1", "test": "PABP1 MLLE–PAM2 interaction inhibitors, dose response, miRNA deadenylation inhibitor project, biochemical, fluorescence polarization, Cy5-PAM2 peptide, secondary (AID 602260)", "format": "functional", "details": "read-out: IC50_Mean"}, "Protein S100-A4": {"molecular_target": "Protein S100-A4 (Homo sapiens, UniProt P26447)", "sequence (P26447 whole entry)": "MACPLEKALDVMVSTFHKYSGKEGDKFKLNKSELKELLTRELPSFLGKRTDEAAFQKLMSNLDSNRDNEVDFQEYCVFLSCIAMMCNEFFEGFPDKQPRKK", "test": "S100A4-myosin IIA binding inhibitor potency, dose response, biochemical, fluorescence polarization, cherry-picked hits (AID 687001)", "format": "functional"}, "Beta-galactosidase": {"molecular_target": "Beta-galactosidase (Escherichia coli, UniProt Q8VNN2)", "sequence (Q8VNN2 whole entry)": "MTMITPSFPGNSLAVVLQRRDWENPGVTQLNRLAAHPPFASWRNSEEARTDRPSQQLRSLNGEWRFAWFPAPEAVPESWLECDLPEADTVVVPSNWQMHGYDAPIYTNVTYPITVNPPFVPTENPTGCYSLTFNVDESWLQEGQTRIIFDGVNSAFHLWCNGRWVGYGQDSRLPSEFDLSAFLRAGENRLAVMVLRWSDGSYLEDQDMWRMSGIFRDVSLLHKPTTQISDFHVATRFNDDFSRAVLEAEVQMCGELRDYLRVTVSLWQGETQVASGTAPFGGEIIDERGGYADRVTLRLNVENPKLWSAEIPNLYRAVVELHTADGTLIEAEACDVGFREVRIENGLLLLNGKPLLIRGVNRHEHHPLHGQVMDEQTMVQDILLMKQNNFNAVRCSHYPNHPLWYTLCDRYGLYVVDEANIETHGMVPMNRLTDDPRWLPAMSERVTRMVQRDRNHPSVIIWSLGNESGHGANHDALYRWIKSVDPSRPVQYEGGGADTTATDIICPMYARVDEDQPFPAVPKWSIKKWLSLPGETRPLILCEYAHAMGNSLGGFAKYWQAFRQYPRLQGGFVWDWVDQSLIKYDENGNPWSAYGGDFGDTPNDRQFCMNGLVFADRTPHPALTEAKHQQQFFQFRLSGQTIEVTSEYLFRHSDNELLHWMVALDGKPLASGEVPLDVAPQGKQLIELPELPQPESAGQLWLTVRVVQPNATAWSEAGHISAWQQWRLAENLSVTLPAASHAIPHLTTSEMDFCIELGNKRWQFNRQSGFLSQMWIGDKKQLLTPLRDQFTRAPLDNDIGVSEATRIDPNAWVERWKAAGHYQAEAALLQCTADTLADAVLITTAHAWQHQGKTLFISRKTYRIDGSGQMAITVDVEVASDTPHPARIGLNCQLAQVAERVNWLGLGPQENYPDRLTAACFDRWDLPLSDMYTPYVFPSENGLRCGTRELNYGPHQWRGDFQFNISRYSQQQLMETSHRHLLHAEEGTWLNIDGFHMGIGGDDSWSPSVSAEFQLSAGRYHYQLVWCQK", "test": "Dose response counterscreen for EBI2 assay utilizing the enzyme, b-galactosidase.", "format": "functional"}, "Cryptococcus neoformans": {"system": "Cryptococcus neoformans", "test": "PubChem AID 686997", "format": "functional, organism-based"}},
  "note": "Activity calls are given as the source filed them.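 For EC50 Mean in this document: caspase-3 cleavage of fluorogenic Rh110 DEVD substrate downstream of apoptosome activation.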",
  "data": [
    {"smiles": "CCN(c1ccc(OC)cc1)c1[nH]cnc2ncnc1-2", "values": [
      {"measurement": "IC50", "setting": "Interleukin-8 [1]", "result": "> 79 µM (inactive)"},
      {"measurement": "IC50", "setting": "Interleukin-8 [2]", "result": "14.5 µM (inactive)"},
      {"measurement": "EC50", "setting": "[3]", "result": "21.8 µM (active)"}
    ]},
    {"smiles": "NC(=O)c1cn(C2OC(CO)C(O)C2O)c2ncnc(N)c12", "note": "(stereo not given)", "values": [
      {"measurement": "IC50", "setting": "Galanin receptor type 3", "result": "1.28 µM (active)"},
      {"measurement": "AC50", "setting": "[4]", "result": "0.591 µM (active)"},
      {"measurement": "AC50", "setting": "Paired box protein Pax-8", "result": "< 0.26 µM (active)"}
    ]},
    {"smiles": "O=C(Cn1cnc2ccccc2c1=O)N1CCN(Cc2ccc3c(c2)OCO3)CC1", "values": [
      {"measurement": "EC50", "setting": "[5]", "result": "16.4 µM (inactive)"},
      {"measurement": "EC50", "setting": "Mu-type opioid receptor", "result": "92.5 µM (inactive)"}
    ]},
    {"smiles": "CC(=O)Nc1cccc(C(=O)OC(C)C(=O)NC(=O)NC2CCCCC2)c1", "note": "(stereo not given)", "values": [
      {"measurement": "AC50", "setting": "Vero", "result": "23.6 µM (active)"}
    ]},
    {"smiles": "CN(CC(=O)N1CCN(c2ccccn2)CC1)S(=O)(=O)c1ccccc1", "values": [
      {"measurement": "EC50", "setting": "[6]", "result": "0.274 µM (active)"},
      {"measurement": "EC50", "setting": "[7]", "result": "0.0435 µM (active)"}
    ]},
    {"smiles": "CCOc1ccccc1NC(=O)CCS(=O)(=O)c1ccc2c(c1)oc(=O)n2C", "values": [
      {"measurement": "EC50", "setting": "[8]", "result": "> 100 µM (inactive)"}
    ]},
    {"smiles": "COC(=O)c1ccc(NC(=O)CSc2nc3ccc[nH]c-3n2)cc1", "values": [
      {"measurement": "IC50", "setting": "[9]", "result": "35.9 µM (inactive)"},
      {"measurement": "IC50", "setting": "[10]", "result": "35.9 µM (inactive)"},
      {"measurement": "IC50", "setting": "Steroidogenic factor 1", "result": "0.978 µM (active)"}
    ]},
    {"smiles": "Cc1cc2ccccc2n1CCNC(=O)c1ccc(Br)o1", "values": [
      {"measurement": "IC50", "setting": "[11]", "result": "> 66 µM (inactive)"},
      {"measurement": "IC50", "setting": "[12]", "result": "> 66 µM (inactive)"},
      {"measurement": "AC50", "setting": "Protein S100-A4", "result": "6.02 µM (active)"}
    ]},
    {"smiles": "O=C(/C=C/c1ccc(Cl)cc1)N1CCN(c2c(Cl)cccc2[N+](=O)[O-])CC1", "values": [
      {"measurement": "IC50", "setting": "Beta-galactosidase", "result": "> 80 µM (inactive)"}
    ]},
    {"smiles": "COC(=O)C1=C(C)N(Cc2ccc(F)cc2)C(=S)NC1c1ccccc1", "note": "(stereo not given)", "values": [
      {"measurement": "AC50", "setting": "Cryptococcus neoformans", "result": "> 76 µM (inactive)"}
    ]}
  ]
}
